Data taken from patent publication US20260137638A1, “STAT3 INHIBITORS FOR USE IN THE TREATMENT OF NON-VIRAL LIVER CANCER” (Tyardi Operating Company, Inc., priority 2022, published 2026).

System: HCC
Test: Safety and efficacy study of TTI-101 in advanced solid tumors: best response (RECIST v1.1) in HCC participants
Format: in vivo, human
Details: for time partial response was sustained / best response: reduction in the sum of overall RECIST targets: non-viral HCC
Method: This study evaluates the safety and efficacy of TTI-101 in advanced solid tumors. TTI-101 was administered twice daily at doses of 1.6 (Cohort 1; n=4), 3.2 (Cohort 2; n=3), or 6.4 mg/kg/dose (Cohort 3; n=8) of a Labrasol/PEG400 formulation (60:40% v/v) or 6.4 mg/kg/dose (Cohort 3a: n=37) or 12.8 mg/kg/dose (Cohort 4; n=10) of oral capsule formulation (composition comprising TTI-101 at a concentration of 92 mg/g in a mixture of Kolliphor RH 40 (PEG-40 hydrogenated castor oil). PEG600. Polysorbate 20, Labrasol, and citric acid). TTI-101 was administered twice daily at 6.4 mg/kg/dose (Cohort 5; n=7) of oral tablet formulation (comprising 200 mg of TTI-101).
These patients had failed all prior lines of therapy (median number of prior therapies=3). Furthermore, a disease control rate (defined as the proportion of patients in whom the best overall response is determined as complete response, partial response or stable disease according to RECIST v1.1) of 60% has been observed in the 15 heavily pre-treated HCC patients (9/15), which is similar to that reported with sorafenib in first-line therapy.

[1] = number of participants, 7 non-viral HCC participants
[2] = number of participants, 8 viral HCC participants
[3] = number of participants, all 15 evaluable HCC participants

COc1ccc(S(=O)(=O)Nc2cc(-c3c(O)ccc4ccccc34)c(O)c3ccccc23)cc1 [TTI-101, N-(1′,2-dihydroxy-1,2′-binaphthalen-4′-yl)-4-methoxybenzenesulfonamide]
Disease Control Rate, HCC (non-viral) (7 non-viral HCC participants): 57% | Disease Control Rate, HCC (viral) (8 viral HCC participants): 63% | time partial response was sustained (Participant A, 6.4 mg/kg/day): 11 months | best response: reduction in the sum of overall RECIST targets (Participant A, 6.4 mg/kg/day, failed sorafenib, pembrolizumab, nivolumab, nivolumab+bevacizumab): 42% | time partial response was sustained (Participant B, 12.8 mg/kg/day): 14 months | best response: reduction in the sum of overall RECIST targets (Participant B, 12.8 mg/kg/day, failed lenvatinib and nivolumab): 66% | best response: reduction in the sum of overall RECIST targets (Participant C, 12.8 mg/kg/day, failed atezolizumab+bevacizumab): 45% | Disease Control Rate, HCC (complete response, partial response or stable disease by RECIST v1.1, 15 heavily pre-treated HCC patients (9/15)): 60% | Progressive Disease, HCC (non-viral) [1]: 3 | Stable Disease, HCC (non-viral) [1]: 1 | Partial Response, HCC (non-viral) (number of participants, 7 non-viral HCC participants, TTI-101 monotherapy): 3 | Progressive Disease, HCC (viral) [2]: 3 | Stable Disease, HCC (viral) [2]: 5 | Partial Response, HCC (viral) (number of participants, 8 viral HCC participants, TTI-101 monotherapy): 0 | Progressive Disease, HCC [3]: 6 | Stable Disease, HCC [3]: 6 | Partial Response, HCC (number of participants, all 15 evaluable HCC participants, TTI-101 monotherapy, after two 28-day cycles, radiologically confirmed): 3
